Read-outs that look alike come from different tables or passages of the source.
Tests used:
[1] = Cytotoxicity assay (MTT); type: cell-based; conditions: human; C8166 cells, MTT, 72 h; means of two separate experiments; read-out: CC50 (50% cytotoxic concentration)
Method: The cytotoxicty assay was performed by 3-(4,5-dimethylthiazol-2-yl)-2,5-diphenyl tetrazoliumbromide (MTT) method. Briefly, 100 μL 4 × 10^4 C8166 cells were seeded each well with 100 μL of different concentrations of compounds in a 96-well plate. The plate was incubated 72 h at 37 °C, 5% CO2 incubator. MTT (20 μL, 5 mg/mL) was added to each well and the plate was incubated at 37 °C for 4 h. Supernatant (100 μL) was discarded and 20% SDS-50% DMF (100 μL) was added. The plates were read at 570/630 nm by a Bio-Tek Elx 800 reader (Bio-Tek Instruments, Inc., Winooski, VT, USA). The 50% cytotoxic concentration (CC50) was calculated.

[2] = tested on: HIV-1IIIB; experiment: Syncytia inhibition assay (HIV-1IIIB infected C8166 cells); type: cell-based; conditions: for TI (in vitro therapeutic index, CC50 value/EC50 value): CC50 in C8166 cells / EC50 syncytia inhibition; for EC50: HIV-1IIIB infected C8166 cells, 72 h, means of two separate experiments, read-out: EC50 (50% effective concentration, reduces syncytia formation by 50%)
Method: Target compounds 6–16 were evaluated for their inhibitory activity against HIV-1 replication in acutely infected C8166 cells in vitro according to the previously described method, and AZT was used as a positive control. The assay results of the target compounds are presented in Table 1 and Table 2, expressed as CC50, EC50 and therapeutic index (TI).
The syncytia inhibition assay was applied by counting syncytia which were formed by HIV-1IIIB infected C8166 cells. Briefly, HIV-1IIIB supernatant and C8166 cells were seeded in a 96-well plate with different concentration of compounds. The plate was incubated in a 37 °C, 5% CO2 incubator for 72 h. Syncytia were counting under an inverted microscope and 50% effective concentration (EC50) was calculated. Therapeutic index (TI) was calculated by the ratio of CC50/EC50.

[3] = Human immunodeficiency virus 1, C8166, 72 h

SMILES | CC50 at 72 h [1] [µM] | TI (in vitro therapeutic index, CC50 value/EC50 value) [2] | EC50 [2, 3] [µM] | EC50 [2] [µM]
CCOc1cccc(C2=NN(c3ccc(F)cc3)C3C(=O)N(CCc4ccc(F)cc4)C(=O)C23)c1O (stereo not shown) [10c, 1-(4-Fluorophenyl)-5-[2-(4-fluorophenyl)ethyl]-3-(3-ethoxy-2-hydroxyphenyl)-3a,6a-dihydro-1H-pyrrolo[3,4-c]pyrazole-4,6-dione] | > 407 | >3.51 | 116 | –
COc1cccc(C2=NN(c3ccccc3)C3C(=O)N(CCc4ccc(F)cc4)C(=O)C23)c1O (stereo not shown) [15h, 5-[2-(4-Fluorophenyl)ethyl]-3-(2-hydroxy-3-methoxyphenyl)-1-phenyl-3a,6a-dihydro-1H-pyrrolo[3,4-c]pyrazole-4,6-dione] | > 436 | >15.22 | 28.6 | –
COc1cccc(C2=NN(c3ccc(F)cc3F)C3C(=O)N(CCc4ccc(F)cc4)C(=O)C23)c1O (stereo not shown) [15d, 1-(2,4-Difluorophenyl)-5-[2-(4-fluorophenyl)ethyl]-3-(2-hydroxy-3-methoxyphenyl)-3a,6a-dihydro-1H-pyrrolo[3,4-c]pyrazole-4,6-dione] | > 404 | >6.12 | 65.9 | –
Cc1cccc(C2=NN(c3ccc(F)cc3)C3C(=O)N(CCc4ccc(F)cc4)C(=O)C23)c1O (stereo not shown) [9f, 1-(4-Fluoro-phenyl)-5-[2-(4-fluoro-phenyl)-ethyl]-3-(2-hydroxy-3-methyl-phenyl)-3a,6a-dihydro-1H-pyrrolo[3,4-c]pyrazole-4,6-dione] | 151 | 30.73 | 4.9 | –
COc1cc([N+](=O)[O-])cc(C2=NN(c3ccc(F)cc3)C3C(=O)N(CCc4ccc(F)cc4)C(=O)C23)c1O (stereo not shown) [compound 11, 1-(4-Fluorophenyl)-5-[2-(4-fluorophenyl)ethyl]-3-(2-hydroxy-3-methoxy-5-nitrophenyl)-3a,6a-dihydro-1H-pyrrolo[3,4-c]pyrazole-4,6-dione] | 90.3 | 2.15 | 41.9 | –
O=C1C2C(c3cccc(O)c3O)=NN(c3ccc(F)cc3)C2C(=O)N1CCc1ccc(F)cc1 (stereo not shown) [compound 6, 3-(2,3-Dihydroxyphenyl)-1-(4-fluorophenyl)-5-[2-(4-fluorophenyl)ethyl]-3a,6a-dihydro-1H-pyrrolo[3,4-c]pyrazole-4,6-dione] | > 432 | >16.37 | 26.4 | –
O=C1C2C(c3ccccn3)=NN(c3ccc(F)cc3)C2C(=O)N1CCc1ccc(F)cc1 (stereo not shown) [14b, 1-(4-Fluorophenyl)-5-[2-(4-fluorophenyl)ethyl]-3-pyridin-2-yl-3a,6a-dihydro-1H-pyrrolo[3,4-c]pyrazole-4,6-dione] | 150 | 5.73 | 26.2 | –
O=C1C2C(c3c(O)ccc4ccccc34)=NN(c3ccc(F)cc3)C2C(=O)N1CCc1ccc(F)cc1 (stereo not shown) [compound 13, 1-(4-Fluorophenyl)-5-[2-(4-fluorophenyl)ethyl]-3-(2-hydroxynaphthalen-1-yl)-3a,6a-dihydro-1H-pyrrolo[3,4-c]pyrazole-4,6-dione] | 9.03 | 2.00 | 4.5 | –
COc1cccc(C2=NN(c3ccc(C)cc3)C3C(=O)N(CCc4ccc(F)cc4)C(=O)C23)c1O (stereo not shown) [15i, 5-[2-(4-Fluorophenyl)ethyl]-3-(2-hydroxy-3-methoxyphenyl)-1-(4-methylphenyl)-3a,6a-dihydro-1H-pyrrolo[3,4-c]pyrazole-4,6-dione] | > 423 | >103.09 | < 5 | 4.1
O=C1C2C(c3cccc([N+](=O)[O-])c3O)=NN(c3ccc(F)cc3)C2C(=O)N1CCc1ccc(F)cc1 (stereo not shown) [9e, 1-(4-Fluorophenyl)-5-[2-(4-fluorophenyl)ethyl]-3-(2-hydroxy-3-nitrophenyl)-3a,6a-dihydro-1H-pyrrolo[3,4-c]pyrazole-4,6-dione] | 49.5 | 6.56 | 7.55 | –
O=C1C2C(c3nccs3)=NN(c3ccc(F)cc3)C2C(=O)N1CCc1ccc(F)cc1 (stereo not shown) [14a, 1-(4-Fluorophenyl)-5-[2-(4-fluorophenyl)ethyl]-3-thiazol-2-yl-3a,6a-dihydro-1H-pyrrolo[3,4-c]pyrazole-4,6-dione] | 158 | 4.46 | 35.6 | –
COc1ccc(N2N=C(c3cccc(OC)c3O)C3C(=O)N(CCc4ccc(F)cc4)C(=O)C32)cc1 (stereo not shown) [15j, 5-[2-(4-Fluorophenyl)-ethyl]-3-(2-hydroxy-3-methoxyphenyl)-1-(4-methoxyphenyl)-3a,6a-dihydro-1H-pyrrolo[3,4-c]pyrazole-4,6-dione] | > 409 | >19.34 | 21.1 | –
COc1cccc(C2=NN(c3cccc(F)c3)C3C(=O)N(CCc4ccc(F)cc4)C(=O)C23)c1O (stereo not shown) [15a, 1-(3-Fluorophenyl)-5-[2-(4-fluorophenyl)ethyl]-3-(2-hydroxy-3-methoxyphenyl)-3a,6a-dihydro-1H-pyrrolo[3,4-c]pyrazole-4,6-dione] | 129 | 10.67 | 12.1 | –
O=C1C2C(c3ccccc3O)=NN(c3ccc(F)cc3)C2C(=O)N1CCc1ccc(F)cc1 (stereo not shown) [compound 8, 1-(4-Fluorophenyl)-5-[2-(4-fluorophenyl)ethyl]-3-(2-hydroxyphenyl)-3a,6a-dihydro-1H-pyrrolo[3,4-c]pyrazole-4,6-dione] | > 447 | >44.25 | 10.1 | –
COc1cccc(C2=NN(c3ccc(Cl)cc3)C3C(=O)N(CCc4ccc(F)cc4)C(=O)C23)c1O (stereo not shown) [15c, 1-(4-Chlorophenyl)-5-[2-(4-fluorophenyl)ethyl]-3-(2-hydroxy-3-methoxyphenyl)-3a,6a-dihydro-1H-pyrrolo[3,4-c]pyrazole-4,6-dione] | 166 | 6.52 | 25.5 | –
COc1c(O)cccc1C1=NN(c2ccc(F)cc2)C2C(=O)N(CCc3ccc(F)cc3)C(=O)C12 (stereo not shown) [7a, 1-(4-Fluorophenyl)-5-[2-(4-fluorophenyl)ethyl]-3-(3-hydroxy-2-methoxyphenyl)-3a,6a-dihydro-1H-pyrrolo[3,4-c]pyrazole-4,6-dione] | 39.1 | 7.29 | 5.37 | –
COc1cccc(C2=NN(c3ccc(S(C)(=O)=O)cc3)C3C(=O)N(CCc4ccc(F)cc4)C(=O)C23)c1O (stereo not shown) [15f, 5-[2-(4-Fluorophenyl)ethyl]-3-(2-hydroxy-3-methoxyphenyl)-1-(4-methanesulfonylphenyl)-3a,6a-dihydro-1H-pyrrolo[3,4-c]pyrazole-4,6-dione] | > 372 | >5.70 | 65.3 | –
O=C1C2C(c3cccc(Cl)c3O)=NN(c3ccc(F)cc3)C2C(=O)N1CCc1ccc(F)cc1 (stereo not shown) [9d, 3-(3-Chloro-2-hydroxyphenyl)-1-(4-fluorophenyl)-5-[2-(4-fluorophenyl)ethyl]-3a,6a-dihydro-1H-pyrrolo[3,4-c]pyrazole-4,6-dione] | 332 | 16.23 | 20.4 | –
COc1cccc(C2=NN(c3ccc(F)cc3)C3C(=O)N(CCc4ccccc4)C(=O)C23)c1O (stereo not shown) [16d, 1-(4-Fluorophenyl)-3-(2-hydroxy-3-methoxyphenyl)-5-phenethyl-3a,6a-dihydro-1H-pyrrolo[3,4-c]pyrazole-4,6-dione] | > 436 | >23.09 | 18.9 | –
O=C1C2C(c3cccc4c3OCO4)=NN(c3ccc(F)cc3)C2C(=O)N1CCc1ccc(F)cc1 (stereo not shown) [12b, 3-Benzo[1,3]dioxol-4-yl-1-(4-fluorophenyl)-5-[2-(4-fluorophenyl)ethyl]-3a,6a-dihydro-1H-pyrrolo[3,4-c]pyrazole-4,6-dione] | 222 | 31.29 | 7.11 | –
COc1cccc(C2=NN(c3ccccc3F)C3C(=O)N(CCc4ccc(F)cc4)C(=O)C23)c1O (stereo not shown) [15b, 1-(2-Fluorophenyl)-5-[2-(4-fluorophenyl)ethyl]-3-(2-hydroxy-3-methoxyphenyl)-3a,6a-dihydro-1H-pyrrolo[3,4-c]pyrazole-4,6-dione] | > 419 | >3.71 | 113 | –
O=C1C2C(c3cccc(F)c3O)=NN(c3ccc(F)cc3)C2C(=O)N1CCc1ccc(F)cc1 (stereo not shown) [9b, 1-(4-Fluorophenyl)-5-[2-(4-fluorophenyl)ethyl]-3-(3-fluoro-2-hydroxyphenyl)-3a,6a-dihydro-1H-pyrrolo[3,4-c]pyrazole-4,6-dione] | 141 | 24.58 | 5.74 | –

Source: publication PMC6274355, “Synthesis and Anti-HIV-1 Activity Evaluation for Novel 3a,6a-Dihydro-1H-pyrrolo[3,4-c]pyrazole-4,6-dione Derivatives” (Molecules, 2016)
